# According to patent publication US20020119993A1, “Potentiator for neurotrophin effect” (SANKO COMPANY, LIMITED, priority 1999, published 2002):
# Assays:
# PC12 cells = experiment: Induction of differentiation (neurite outgrowth) in PC12 cells with neurotrophin; assay type: cell-based, rat; settings: for Ratio of PC12 cells having an outgrowth (%): 72 hours; for Differentiation-induction of PC12 cells by neurotrophin alone (in words): neurotrophin used alone
# From the text: Induction of Differentiation in […] strain (PC12 cell) derived from Rat Adrenal Medulla
# PC12 cells were suspended in a DEM medium containing 10% equine serum and 5% bovine serum and the resulting suspension was charged in a collagen-coated 24-well plate. Twenty-four hours later, the medium was exchanged. A neurotrophin [human recombinant NGF or NT-3 (Austral Biologicals)] and 1-amino-3,8-dichloro-6(5H)-phenanthridinone (Compound No. 166) synthesized in accordance with the process described in Journal of Heterocyclic Chemistry, Z, 597 (1970), were added and cultured for 72 hours. After the medium was discarded, the cells were fixed with 2% glutaraldehyde and were observed under a microscope. The ratio of the cells having a longer outgrowth than the cell body was determined.
# [1] = tested on: neurotrophin receptor Trk; experiment: Neurotrophin receptor Trk activation (phosphotyrosine) in hippocampal and strial tissue slices of matured rat; assay type: cell-based; settings: for Amount of neurotrophin receptor Trk activated in matured rat cerebral tissues: relative to the amount (100) activated by NGF in the strial tissue
# Method: Enhancing Action of Neurotrophin Response in Hippocampal and Strial Tissue Slices of Matured Rat
# Male SD rats (Nippon SLC) were decapitated under anesthesia and the hippocampus and the corpus striatum were isolated. The tissue was cut into 0.2×0.2 mm slices with a “McIlwain Tissue Chopper” (Mickle Laboratory Engineering Company), and were suspended in a DMEM medium. A neurotrophin (NGF or NT-3) and 1-amino-3,8-dichloro-6(5H)-phenanthridinone were added to the suspension and the mixture was kept at 37° C. for 20 minutes. After washing the tissue with ice-cooled tris buffer physiological saline (TBS), the mixture was stirred vigorously and dissolved in TBS containing 1% Triton-X100, 10 μg/ml of leupeptin, 10 µg/ml of aprotinin, 1 mM of phenylmethylsulfonyl fluoride and 1 mM of sodium vanadate. After centrifugation at 14000 g for 15 minutes, the amount of protein in the supernatant was determined with Protein Assay Kit (Bio-Rad Laboratories, Ltd.). Anti-Trk antibody C-14 (Santa Cruz Biotechnology Inc) which specifically binds to Trk, a neurotrophin receptor, was added to the extract which was adjusted to contain an equal amount of protein and mixed at 4° C. for 16 hours. Thus the Trk receptor in the tissue extract formed an immunocomplex with the antibody. The immunocomplex was precipitated with protein A Sepharose beads (Amersham Pharmacia Biotech). The Trk protein collected was separated from other proteins by sodium dodecyl sulfate-polyacrylamide gel electrophoresis and then transferred to a nitrocellulose membrane by Western blot assay. The membrane was reacted with Antibody 4G10 (Upstate Biotechnology Inc) which recognizes phosphotyrosine and the amount of phosphotyrosine of the Trk protein fixed on the membrane was visualized on a film by an enhanced chemiluminescence kit (Amersham Pharmacia Biotech). The film was photographed by a digital camera and the density of the band was determined by digital image analyzing software (Eastman Kodak Company).
# [2] = tested on: sensory neurons in the dorsal root ganglion of the rat spinal cord; experiment: Survival of sensory neurons of the dorsal root ganglion of the rat spinal cord; assay type: cell-based; settings: for Effect on NGF or NT-3 prolonged survival of sensory neurons in the dorsal root ganglion (in words): with NGF or NT-3
# Method: Effects on Survival of Ganglion Sensory Neurons in Dorsal Spinal Root Ganglion of the Rat Spinal Cord
# The dorsal root ganglion of the spinal cord was isolated from fetuses of the SD rat (Nippon SLC) on 17 days definite pregnancy under a stereoscopic microscope. The ganglion was then treated with 1 mg/ml of collagenase, 2 mg/ml of trypsin and 2 mg/ml of DNase I, followed by dispersion in an MEM medium containing 10% bovine fetal serum. Immediately after the sensory neuron suspension was charged in a 12-well plate (Becton Dickinson Labware) which was coated in advance with laminin and poly-D-lysine, a neurotrophin (NGF or NT-3) and 1-amino-3,8-dichloro-6(5H)-phenanthridinone (Compound No. 166) or 6(5H)-phenanthridinone (Compound A) were added. When half of the medium was exchanged on the next day, cytosine arabinoside was added to the culture medium at a final concentration of 10 μM, in order to cause cell death other than to neurons. A neurotrophin and the test compound were added to the medium at their original concentrations. After culturing for a further two days, the neurons were photographed under a microscope and the number of viable neurons was counted.
# [3] = Table 4, NT-3 100 ng/ml + compound 1 μM
# [4] = Table 4, neurotrophin-free, compound 1 μM
compound,measurement,setting,value
"NT-3: neurotrophin-3, a neurotrophin (Austral Biologicals)",Ratio of PC12 cells having an outgrowth (%),"PC12 cells; neurotrophin alone 100 ng/ml, compound-free",2 ± 0.6%
same,Differentiation-induction of PC12 cells by neurotrophin alone (in words),PC12 cells,did not cause any sufficient differentiation-induction by itself
same,Amount of neurotrophin receptor Trk activated in matured rat cerebral tissues,"[1]; Corpus striatum, NT-3 100 ng/ml alone",12
same,Amount of neurotrophin receptor Trk activated in matured rat cerebral tissues,"[1]; Hippocampus, NT-3 100 ng/ml alone",27
same,Number of viable sensory neurons in the dorsal root ganglion of the rat spinal cord (per mm^2),"[2]; Table 3, neurotrophin alone 100 ng/ml, compound-free",19 ± 5.0 per mm^2
same,Number of viable sensory neurons in the dorsal root ganglion of the rat spinal cord (per mm^2),"[2]; Table 4, neurotrophin alone 100 ng/ml, compound-free",33 ± 4.9 per mm^2
"Nc1cc(Cl)cc2[nH]c(=O)c3cc(Cl)ccc3c12 [Compound No. 166, 1-amino-3,8-dichloro-6(5H)-phenanthridinone]",Ratio of PC12 cells having an outgrowth (%),PC12 cells; NGF 5 ng/ml + compound 3 μM,12 ± 1.3%
same,Ratio of PC12 cells having an outgrowth (%),PC12 cells; NGF 5 ng/ml + compound 30 μM,29 ± 2.6%
same,Ratio of PC12 cells having an outgrowth (%),PC12 cells; NGF 20 ng/ml + compound 3 μM,51 ± 6.5%
same,Ratio of PC12 cells having an outgrowth (%),PC12 cells; NGF 20 ng/ml + compound 30 μM,72 ± 2.0%
same,Ratio of PC12 cells having an outgrowth (%),PC12 cells; NGF 50 ng/ml + compound 3 μM,79 ± 3.0%
same,Ratio of PC12 cells having an outgrowth (%),PC12 cells; NGF 50 ng/ml + compound 30 μM,88 ± 0.7%
same,Ratio of PC12 cells having an outgrowth (%),PC12 cells; NT-3 100 ng/ml + compound 3 μM,62 ± 0.2%
same,Ratio of PC12 cells having an outgrowth (%),PC12 cells; NT-3 100 ng/ml + compound 30 μM,73 ± 3.6%
same,Effect on NGF-induced differentiation and neurite outgrowth in PC12 cells (in words),PC12 cells; applied with NGF,potentiated the NGF-induced differentiation and neurite outgrowth in PC12 cells
same,Effect on differentiation-induction of PC12 cells (in words),PC12 cells; combined application with NT-3,markedly potentiated the differentiation-induction of PC12 cells
same,Amount of neurotrophin receptor Trk activated in matured rat cerebral tissues,"[1]; Corpus striatum, NT-3 100 ng/ml + compound 30 μM",68
same,Amount of neurotrophin receptor Trk activated in matured rat cerebral tissues,"[1]; Hippocampus, NT-3 100 ng/ml + compound 30 μM",58
same,Neurotrophin enhancing action in the adult central nervous system (in words),"[1]; matured rat cerebral tissue slices, Table 5",has a neurotrophin enhancing action in the adult central nervous system
same,Number of viable sensory neurons in the dorsal root ganglion of the rat spinal cord (per mm^2),"[2]; Table 3, NGF 1 ng/ml + compound 3 μM",71 ± 1.7 per mm^2
same,Number of viable sensory neurons in the dorsal root ganglion of the rat spinal cord (per mm^2),"[2]; Table 3, NT-3 100 ng/ml + compound 3 μM",168 ± 21.1 per mm^2
same,Number of viable sensory neurons in the dorsal root ganglion of the rat spinal cord (per mm^2),"[2]; Table 3, neurotrophin-free, compound 3 μM",24 ± 1.6 per mm^2
same,Number of viable sensory neurons in the dorsal root ganglion of the rat spinal cord (per mm^2),[2]; [3],133 ± 13.1 per mm^2
same,Number of viable sensory neurons in the dorsal root ganglion of the rat spinal cord (per mm^2),[2]; [4],11 ± 4.0 per mm^2
same,Effect on NGF or NT-3 prolonged survival of sensory neurons in the dorsal root ganglion (in words),[2],markedly potentiated the effects of NGF or NT-3
"NGF: human recombinant NGF (nerve growth factor), a neurotrophin (Austral Biologicals)",Ratio of PC12 cells having an outgrowth (%),"PC12 cells; neurotrophin alone 5 ng/ml, compound-free",8 ± 0.9%
same,Ratio of PC12 cells having an outgrowth (%),"PC12 cells; neurotrophin alone 20 ng/ml, compound-free",27 ± 2.8%
same,Ratio of PC12 cells having an outgrowth (%),"PC12 cells; neurotrophin alone 50 ng/ml, compound-free",57 ± 3.6%
same,Differentiation-induction of PC12 cells by neurotrophin alone (in words),PC12 cells,induced differentiation of PC12 cells
same,Number of viable sensory neurons in the dorsal root ganglion of the rat spinal cord (per mm^2),"[2]; Table 3, neurotrophin alone 1 ng/ml, compound-free",44 ± 5.5 per mm^2
"O=c1[nH]c2ccccc2c2ccccc12 [Compound A, 6(5H)-phenanthridinone, reference compound]",Number of viable sensory neurons in the dorsal root ganglion of the rat spinal cord (per mm^2),[2]; [3],37 ± 3.6 per mm^2
same,Number of viable sensory neurons in the dorsal root ganglion of the rat spinal cord (per mm^2),[2]; [4],6 ± 0.8 per mm^2
same,Effect on NGF or NT-3 prolonged survival of sensory neurons in the dorsal root ganglion (in words),[2],had no effects
